Experimental data reported in US10933134B2, “Combination therapies for treatment of cancer” (priority 2017, dated 2021).
Non-standard residues stand in square brackets, D forms with d. Residues, ends and D or L forms follow the SMILES beside them. *: point of attachment. dPhe(4-NHCONH2) = NC(=O)Nc1ccc(C[C@@H](N)C(=O)O)cc1; Dihydroorotyl(S) = O=C1C[C@@H](C(=O)*)NC(=O)N1; dPhe(4-Cl) = N[C@H](Cc1ccc(Cl)cc1)C(=O)O; Phe(4-NH2) = Nc1ccc(C[C@H](N)C(=O)O)cc1; d2Nal = N[C@H](Cc1ccc2ccccc2c1)C(=O)O; Lys(iPr) = CC(C)NCCCC[C@H](N)C(=O)O; d3Pal = N[C@H](Cc1cccnc1)C(=O)O

Legend:
[1] = system: LNCaP-AR xenograft tumors; assay: GSEA transcriptome analysis of LNCaP-AR xenografts following VTP; format: in vivo, SCID mice
Description: (vi) GSEA for transcriptome analysis of LNCaP-AR xenografts following VTP treatment: LNCaP/AR xenografts were established in intact SCID mice by injecting 2 million cells as described previously [Chen et al., 2004] and, once established, were treated with VTP at 9 mg/kg WST11 followed by 753 nm illumination at 100 mW/cm^2 laser fluence. Tumors were collected at 3, 6, or 24 hours, 1 week and 8.5 weeks post VTP and RNA was isolated following the standard protocol using TRIzol (Fisher Scientific). Expression profiling was performed using Illumina HT-12 Expression BeadChip array and the data was analyzed using Partek Genomics Suite (Partek Inc., St. Louis, Mo.). The microarray data then underwent secondary analysis by GSEA [Subramanian et al., 2005] using gene sets from the Hallmark and C2, Canonical Pathways collections (Molecular Signature Databases v6.0 (MSigDB); Broad Institute at http site //software.broadinstitute.org/gsea/msigdb.GSEA| MSigDB. Accessed 19 Jun. 2017. Microarray data has been deposited in the National Center for Biotechnology Information Gene Expression Omnibus (GEO) (GSE109681). To identify potential druggable pathways active in PCa that could be exploited for combination therapy with VTP, we analyzed the transcriptome of LNCaP-AR xenograft tumors following acute response to VTP exposure. […]

low-risk, localized PCa = conditions: cited from earlier work
total PSA (tPSA) = assay: Serum total PSA in mice bearing LNCaP-AR tumors; format: in vivo; conditions: one, three, or seven days post-WST11 VTP (FIG. 5A)
Description: This assay measures free PSA and complexed PSA in an equimolar fashion [Ulmert et al., 2012; Mitrunen et al., 1995], and the cross-reactivity of PSA-ACT for free PSA is less than 0.2% [Pettersson et al., 1995]. The lower limits of detection are 0.1 ng/mL for both total PSA and free PSA. For detection, the 1235 automatic immunoassay system from Perkin-Elmer Life Sciences (Waltham, Mass.) was used.
(vii) Statistical analysis: Two-way ANOVA test using GraphPad Prism (GraphPad Software, La Jolla, Calif.) was used for therapeutic efficacy in affecting tumor growth, and One-way ANOVA for PSA and a Mann-Whitney test for CD31, Ki67 or TUNEL staining quantification. Differences with p values<0.05 were considered statistically significant.
To verify that AR activity was inhibited by the treatments, the levels of total PSA (tPSA) in serum of mice bearing LNCaP-AR tumors were measured. Serum tPSA values were determined in separate cohorts of mice at one, three, or seven days post-WST11 VTP (four, six or ten days post-degarelix).

LNCaP-AR tumors = assay: Histology and immunohistochemistry of treated tumors (TUNEL, AR, Ki67); format: in vivo, mice; conditions: for TUNEL staining (cell death): tumors on days three and seven post-VTP (FIG. 5B)
Description: (§1) (v) Histology and immunohistochemistry: All tumor specimens were fixed in 10% buffered formalin (Fisher Scientific, Pittsburgh, Pa.), processed routinely, embedded in paraffin, sectioned at 5-micron thickness, and stained with hematoxylin-eosin (H&E). Immunohistochemistry (IHC) of tumors was performed on 5 micron formalin-fixed paraffin embedded (FFPE) section following heat induced epitope retrieval (HIER) in a buffer at pH 9.0. AR staining with anti-AR antibody (at 0.66 μg/ml, Abcam, Cambridge, Mass.) and TUNEL staining for cell death with terminal deoxynucleotidyl transferase dUTP nick-end labeling (Roche Diagnostics, Indianapolis, Ind.) was performed using Discovery XT processor (Ventana Medical Systems, Inc., Tucson, Ariz.) at the Molecular Cytology core facility. IHC staining for CD31 and Ki67 markers was performed on FFPE sections at the Laboratory of Comparative Pathology on a Leica Bond RX automated stainer (Leica Biosystems, Buffalo Grove, Ill.). […] For quantification of CD31, Ki67 and TUNEL staining, whole slide digital images were generated on a scanner (Pannoramic 250 Flash III, 3DHistech, 20×/0.8NA objective, Budapest, Hungary) at a resolution of 0.2431 μm per pixel. Staining quantification was performed with QuPath 0.1.2 software (Centre for Cancer Research & Cell Biology, Queen's University Belfast, UK). […] For CD31 and TUNEL, the positive area, defined as the ratio of DAB stained pixels to total ROI area, was measured using the positive pixel count algorithm. For Ki67, the ratio (percentage) of cells with positive nuclear staining to total cell number was measured with the positive cell detection algorithm. […]
(§2) (vii) Statistical analysis: Two-way ANOVA test using GraphPad Prism (GraphPad Software, La Jolla, Calif.) was used for therapeutic efficacy in affecting tumor growth, and One-way ANOVA for PSA and a Mann-Whitney test for CD31, Ki67 or TUNEL staining quantification. […]

CD31 = CD31 IHC staining of tumors (vessel quantification); format: in vivo, mice
Description: as §1, with “9.0.” for “9.0. AR staining with anti-AR antibody (at 0.66 μg/ml, Abcam, Cambridge, Mass.) and TUNEL staining for cell death with terminal deoxynucleotidyl transferase dUTP nick-end labeling (Roche Diagnostics, Indianapolis, Ind.) was performed using Discovery XT processor (Ventana Medical Systems, Inc., Tucson, Ariz.) at the Molecular Cytology core facility. IHC staining for CD31 and Ki67 markers was performed on FFPE sections at the Laboratory of Comparative Pathology on a Leica Bond RX automated stainer (Leica Biosystems, Buffalo Grove, Ill.).”
as §2

Row | Structure (SMILES) | gene sets related to hypoxia, HIF1A, and VEGFR pathways (GSEA) ([1]; three to six hours post-VTP treatment) | AR signaling gene sets (GSEA) ([1]; three to six hours post-VTP, vs control mice) | patients negative for cancer in follow up biopsies (low-risk, localized PCa; 6 months after prostate hemiablation, low-risk localized PCa) [%] | HR of disease progression versus active surveillance (low-risk, localized PCa; at 24 months, 95% CI 0.24-0.46, p<0.0001) | disease progression (low-risk, localized PCa; at 24 months, active surveillance 58%) [%] | patients free of clinically significant cancer in the treated lobes (low-risk, localized PCa; median follow-up of 68 months) [%] | treated patients who avoided a need for subsequent radical therapy (low-risk, localized PCa; median follow-up of 68 months) [%] | fold changes of serum tPSA (total PSA (tPSA)) | TUNEL staining (cell death) (LNCaP-AR tumors) | Ki67 signal (tumor proliferation) (LNCaP-AR tumors; day 7 post-VTP, p<0.05 vs controls (FIG. 5C)) | number of vessels in tumors by CD31 image analysis (CD31; FIG. 6A, versus control group) | decrease in CD31 staining area compared to controls (CD31; degarelix-treated n=11 vs control n=12, p<0.05 (FIG. 6B)) [%]
1 | CCC1c2cc3[n-]c(c(CC(=O)OC)c4nc(cc5[n-]c(cc(n2)C1C)c(C(C)=O)c5C)C(C)C4CCC(=O)[O-])c(C(=O)NCCS(=O)(=O)[O-])c3C.[K+].[K+].[Pd+2] (centres unmarked) [WST11/VTP, Palladium 3^1-oxo-15-methoxycarbonylmethyl-rhodobacteriochlorin 13^1-(2-sulfoethyl) amide dipotassium salt] | statistically significant enrichments | up-regulated | 80.6 | 0.34 | 28 | 82 | 76 | declined | partial cell death characterized by large foci of TUNEL staining |  |  | 
2 | CC(=O)N[C@H](Cc1ccc2ccccc2c1)C(=O)N[C@H](Cc1ccc(Cl)cc1)C(=O)N[C@H](Cc1cccnc1)C(=O)N[C@@H](CO)C(=O)N[C@@H](Cc1ccc(NC(=O)[C@@H]2CC(=O)NC(=O)N2)cc1)C(=O)N[C@H](Cc1ccc(NC(N)=O)cc1)C(=O)N[C@@H](CC(C)C)C(=O)N[C@@H](CCCCNC(C)C)C(=O)N1CCC[C@H]1C(=O)N[C@H](C)C(N)=O [degarelix] (Ac-[d2Nal][dPhe(4-Cl)][d3Pal]S[Phe(4-NH2)](Dihydroorotyl(S))[dPhe(4-NHCONH2)]L[Lys(iPr)]P[dA]-NH2) |  |  |  |  |  |  |  | declined | little TUNEL staining | reduced Ki67 signal compared to controls | appear to have fewer vessels | 38
